Test [1] concerns Human immunodeficiency virus 1. Put plainly: Antiviral potency was assessed by measuring the effect on accumulation of viral RNA transcripts 3 days after infection of MT-2 cells with HIV-1 RF. The note with it: Human immunodeficiency virus 1, MT2, 72 h. It is filed as functional, MT2.
For test [2], the target named is Human immunodeficiency virus type 1 protease (Human immunodeficiency virus 1, UniProt Q72874). As to the kind of experiment: Inhibitory activity against HIV protease.
Test [3] concerns the target Human immunodeficiency virus type 1 protease (Human immunodeficiency virus 1) (UniProt Q72874). As to the kind of experiment: Ability to increase whole-cell antiviral efficacy through better translation defined as the ratio between IC90 and Ki. It is filed as functional.

Take `COc1ccc(C[C@@H]2[C@H](O)[C@@H](O)[C@@H](Cc3ccc(OC)cc3)N(Cc3ccc(CO)cc3)C(=O)N2Cc2ccc(CO)cc2)cc1`: in test [1], the 90% effect level (IC90) was put at 56 nM. The same compound yielded a Ki in test [2] of 0.24 nM. The Ratio in test [3] stood at 230.
The corresponding values for `O=C1N(Cc2ccc(CO)cc2)[C@H](Cc2ccc(F)c(F)c2)[C@H](O)[C@@H](O)[C@@H](Cc2ccc(F)c(F)c2)N1Cc1ccc(CO)cc1` are 36 nM, 0.47 nM and 76.
For `COc1ccc(C[C@@H]2[C@H](O)[C@@H](O)[C@@H](Cc3ccc(OC)cc3)N(Cc3ccccc3)C(=O)N2Cc2ccccc2)cc1`, the IC90 in test [1] was 600 nM. In test [2], this compound displayed a Ki of 8.6 nM. In test [3], the Ratio was determined as 70.
`CN(C)c1cccc(C[C@@H]2[C@H](O)[C@@H](O)[C@@H](Cc3cccc(N(C)C)c3)N(Cc3ccccc3)C(=O)N2Cc2ccccc2)c1`: it took 1200 nM to reach the 90% level in test [1] (IC90). The affinity in test [2], expressed as Ki, was 4.3 nM. Besides, the Ratio in test [3] was 280.
`COc1cccc(C[C@@H]2[C@H](O)[C@@H](O)[C@@H](Cc3cccc(OC)c3)N(Cc3ccc(CO)cc3)C(=O)N2Cc2ccc(CO)cc2)c1` gave an IC90 in test [1] of 37 nM. The same compound yielded a Ki in test [2] of 0.11 nM. Also, the Ratio in test [3] amounted to 340.
The corresponding values for `O=C1N(CC2CC2)[C@H](Cc2cccc(O)c2)[C@H](O)[C@@H](O)[C@@H](Cc2cccc(O)c2)N1CC1CC1` are 2570 nM, 13 nM and 200.
Take `O=C1N(Cc2ccc(CO)cc2)[C@H](Cc2ccccc2)[C@H](O)[C@@H](O)[C@@H](Cc2ccccc2)N1Cc1ccc(CO)cc1` [DMP-323]: in test [1], the IC90 was 136 nM. Also, in test [2], the inhibition constant Ki stood at 0.27 nM. Further, the Ratio in test [3] worked out at 500.
Taken in the same sequence, the figures for `O=C1N(CC2CC2)[C@H](Cc2ccccc2)[C@H](O)[C@@H](O)[C@@H](Cc2ccccc2)N1CC1CC1` were 1840 nM, 1.9 nM and 970.
In test [1], `O=C1N(CC2CC2)[C@H](Cc2ccc3ccccc3c2)[C@H](O)[C@@H](O)[C@@H](Cc2ccc3ccccc3c2)N1CC1CC1` showed an IC90 of 3400 nM. Moreover, in test [2], the Ki was found to be 4.3 nM. Besides, in test [3], the Ratio turned out to be 790.
Taken in the same sequence, the figures for `O=C1N(CC2CC2)[C@H](Cc2cccs2)[C@H](O)[C@@H](O)[C@@H](Cc2cccs2)N1CC1CC1` were 7800 nM, 9.1 nM and 860.
On to `O=C1N(Cc2ccccc2)[C@H](Cc2ccc3ccccc3c2)[C@H](O)[C@@H](O)[C@@H](Cc2ccc3ccccc3c2)N1Cc1ccccc1`, for which, in test [1], the IC90 stood at 3300 nM. The affinity in test [2] corresponds to a Ki of 9.8 nM. Also, the Ratio in test [3] was found to be 340.
Taken in the same sequence, the figures for `CN(C)c1ccc(C[C@@H]2[C@H](O)[C@@H](O)[C@@H](Cc3ccc(N(C)C)cc3)N(Cc3ccccc3)C(=O)N2Cc2ccccc2)cc1` were 2700 nM, 46 nM and 60.
As for `COc1ccc(C[C@@H]2[C@H](O)[C@@H](O)[C@@H](Cc3ccc(OC)cc3)N(CC3CC3)C(=O)N2CC2CC2)cc1`, in test [1], the IC90 was determined as 320 nM. Further, the Ki in test [2] worked out at 2.9 nM. Besides, in test [3], the Ratio came out at 110.
Turning to `COc1cccc(C[C@@H]2[C@H](O)[C@@H](O)[C@@H](Cc3cccc(OC)c3)N(CC3CC3)C(=O)N2CC2CC2)c1`, the IC90 in test [1] worked out at 650 nM. Also, the Ki in test [2] was 0.87 nM. In test [3], the Ratio stood at 750.
The corresponding values for `O=C1N(Cc2ccccc2)[C@H](Cc2ccccc2O)[C@H](O)[C@@H](O)[C@@H](Cc2ccccc2O)N1Cc1ccccc1` are 6500 nM, 35 nM and 185.
The corresponding values for `CS(=O)(=O)c1ccc(C[C@@H]2[C@H](O)[C@@H](O)[C@@H](Cc3ccc(S(C)(=O)=O)cc3)N(Cc3ccccc3)C(=O)N2Cc2ccccc2)cc1` are 470 nM, 2.5 nM and 190.
The compound `O=C1N(CC2CC2)[C@H](Cc2ccc(F)cc2)[C@H](O)[C@@H](O)[C@@H](Cc2ccc(F)cc2)N1CC1CC1` gave an IC90 in test [1] of 3200 nM. Besides, in test [2], the Ki turned out to be 5.8 nM. Further, in test [3], the Ratio is 550.
Take `O=C1N(Cc2ccccc2)[C@H](Cc2ccc3c(c2)OCO3)[C@H](O)[C@@H](O)[C@@H](Cc2ccc3c(c2)OCO3)N1Cc1ccccc1`: the 90% effect level in test [1] (IC90) was put at 500 nM. For the same compound, the Ki in test [2] is 1.3 nM. Moreover, the Ratio in test [3] turned out to be 385.
`COc1cc(C[C@@H]2[C@H](O)[C@@H](O)[C@@H](Cc3cc(OC)cc(OC)c3)N(CC3CC3)C(=O)N2CC2CC2)cc(OC)c1`: the IC90 in test [1] was determined as 380 nM. The same compound returned a Ki in test [2] of 2.7 nM. Besides, in test [3], the Ratio is 140.
In test [1], `O=C1N(Cc2ccccc2)[C@H](Cc2ccoc2)[C@H](O)[C@@H](O)[C@@H](Cc2ccoc2)N1Cc1ccccc1` registered an IC90 of 7800 nM. For the same compound, the Ki in test [2] was determined as 8.4 nM. The Ratio in test [3] is 920.
As for `COc1cccc(C[C@@H]2[C@H](O)[C@@H](O)[C@@H](Cc3cccc(OC)c3)N(Cc3ccccc3)C(=O)N2Cc2ccccc2)c1`, it took 350 nM to reach the 90% level in test [1] (IC90). In test [2], this compound came in with a Ki of 4.7 nM. In addition, the Ratio in test [3] is 75.
For the compound `O=C1N(Cc2ccc(CO)cc2)[C@H](Cc2ccc(F)cc2)[C@H](O)[C@@H](O)[C@@H](Cc2ccc(F)cc2)N1Cc1ccc(CO)cc1`, the IC90 in test [1] was 100 nM. In test [2], this compound returned a Ki of 0.44 nM. Besides, the Ratio in test [3] was 230.
With `Nc1cccc(C[C@@H]2[C@H](O)[C@@H](O)[C@@H](Cc3cccc(N)c3)N(Cc3ccccc3)C(=O)N2Cc2ccccc2)c1`, in test [1], the IC90 is 1300 nM. Also, in test [2], affinity was put at a Ki of 2.8 nM. For the same compound, the Ratio in test [3] was determined as 460.
In test [1], `O=C1N(Cc2ccccc2)[C@H](Cc2ccc(O)cc2)[C@H](O)[C@@H](O)[C@@H](Cc2ccc(O)cc2)N1Cc1ccccc1` displayed an IC90 of 185 nM. In test [2], this compound registered a Ki of 1.1 nM. Also, in test [3], the Ratio amounted to 170.
As for `O=C1N(Cc2ccccc2)[C@H](Cc2ccccc2)[C@H](O)[C@@H](O)[C@@H](Cc2ccccc2)N1Cc1ccccc1`, it took 790 nM to reach the 90% level in test [1] (IC90). In test [2], the affinity corresponds to a Ki of 3.4 nM. Further, the Ratio in test [3] was determined as 230.
Taken in the same sequence, the figures for `CSc1ccc(C[C@@H]2[C@H](O)[C@@H](O)[C@@H](Cc3ccc(SC)cc3)N(Cc3ccccc3)C(=O)N2Cc2ccccc2)cc1` were 1300 nM, 3.4 nM and 380.
As for `CSc1cccc(C[C@@H]2[C@H](O)[C@@H](O)[C@@H](Cc3cccc(SC)c3)N(Cc3ccccc3)C(=O)N2Cc2ccccc2)c1`, the 90% effect level in test [1] (IC90) was put at 4170 nM. Besides, the Ki in test [2] was found to be 2.5 nM. Moreover, the Ratio in test [3] stood at 1700.

By IC90 is commonly meant the concentration at which the effect reaches the 90% level. Low values mean an effect from little substance, high ones a need for much substance. As usually defined, the Ki is a measure of affinity in units of concentration, obtained from inhibition or displacement.

For the origin of these results see ChEMBL document CHEMBL1129785, “Preparation and structure-activity relationship of novel P1/P1'-substituted cyclic urea-based human immunodeficiency virus type-1 protease inhibitors” (J Med Chem, 1996).
